Each block holds one compound with its values, some of them ahead of it.
How the values were obtained:
[1] = pharmacokinetic profile of ^18F-PARPi in a tumor-free mouse; format: in vivo
Procedure: Bone uptake amounts for 6% ID/g. While low, imaging in larger mammals typically reduces bone-uptake further due to slower metabolic degradation.
The blood half-life, serum stability, and metabolic stability of ^18F-PARPi was determined. Blood half-lives were determined after the injection of ˜15 μCi of the ^18F-labeled species into C57BL/6J (B6) mice and blood (5-10 μL) drawn at different time points via saphenous vein bleeds. FIGS. 13A-13B show an image acquired at 60 minutes. The drawn blood was both counted as well as analyzed using a HPLC-MS equipped with both a fluorescence detector as well as a parallel radiodetector. Organs were homogenized. Next, the bimodal imaging agent was extracted and radioactive/fluorescent metabolites were analyzed using HPLC. All major organs were weighed, and their […] activity was measured using a scintillation counter. The injected dose per gram tissue (% ID/g) was determined.

[2] = tested on: U87 cells; test: MTT assay; format: cell-based; conditions: U87 glioblastoma cells
[3] = tested on: U251 cells; test: MTT assay; format: cell-based; conditions: U251 glioblastoma cells
[4] = tested on: Ca127 cells; test: flow cytometry of PARPi-fl uptake with and without irradiation; format: cell-based, human
Procedure: (§1) First, cells were irradiated with 0, 2, 4 and 10 Gy in 25 cm^2 culture flasks using the J.L. Shepherd Cesium irradiator (J.L. Shepherd, San Fernando, Calif.) at a dose rate of 174 cGy/min. […] Following a wash with PBS, cells were trypsinized, counted, and portions of 0.5×10^6 cells of the single cell suspension were aliquoted into 1.5 ml Eppendorf tubes (Eppendorf, Hamburg, Germany). For each time point and irradiation dose, samples were either left unstained, were stained with PARPi-fl or olaparib/PARPi-fl. […] For staining, cells were washed with 1 ml FACS buffer (1% BSA (w/v) in PBS). […] Next, cells were centrifuged, the supernatant was aspirated and cells were re-suspended in 0.5 ml FACS buffer and transferred to 5 ml round bottom flow cytometry tubes (BD Biosciences, Bedford, Mass.) through a 40 μm strainer to remove doublets and left on ice until measurement in the flow cytometer (LSR® II, BD Biosciences, Bedford, Mass.). For each measurement, 10,000 events were counted. Raw data were processed in FlowJo software in order to calculate the changes in PARPi-fl uptake after irradiation. Cell clumps and debris were eliminated using the corresponding gates (forward and side scatter) for the unstained cell population. The gates were applied to all stained samples. PARPi-fl fluorescence was imaged in the FITC channel against side scatter (area).

[5] = tested on: FaDu cells; test: as above; format: cell-based, human
Procedure: as §1

[6] = cited from earlier work
[7] = tested on: subcutaneous FaDu tumors; test: ex vivo epifluorescence imaging of PARPi-fl uptake, subcutaneous FaDu xenografts and normal tissues
Procedure: Animals were sacrificed 90 minutes post-injection and tumors, tongues, trachea, and muscle were excised and imaged using epifluorescence imaging (IVIS Spectrum, PerkinElmer, Waltham, Mass.). […] This measure carries the unit [p/s/cm^2/sr]/[μW/cm^2] and is defined as the number of photons per second leaving a square centimeter of tissue and radiating into a solid angle of one steradian (sr).

[8] = tested on: tumor cells; test: in vivo confocal imaging of PARPi-fl in tumor cells (cell population drug kinetics)
Source text: Concentration rapidly increases after a bolus dose followed by a slow decay (top).

[9] = clearance from circulation and metabolic stability after IV injection; format: in vivo, mice
[10] = target: T1, PARP1 (Homo sapiens, UniProt P09874); test: correlation of PARPi-fl fluorescence with PARP1 antibody staining in FaDu tumor sections; format: in vivo; conditions: nuclear area, 222 pairs
T1 construct: endogenous in cells; host or cells: FaDu (human hypopharyngeal SCC, ATCC) subcutaneous xenografts in athymic nude mice
T1 sequence (P09874 whole entry, species assumed): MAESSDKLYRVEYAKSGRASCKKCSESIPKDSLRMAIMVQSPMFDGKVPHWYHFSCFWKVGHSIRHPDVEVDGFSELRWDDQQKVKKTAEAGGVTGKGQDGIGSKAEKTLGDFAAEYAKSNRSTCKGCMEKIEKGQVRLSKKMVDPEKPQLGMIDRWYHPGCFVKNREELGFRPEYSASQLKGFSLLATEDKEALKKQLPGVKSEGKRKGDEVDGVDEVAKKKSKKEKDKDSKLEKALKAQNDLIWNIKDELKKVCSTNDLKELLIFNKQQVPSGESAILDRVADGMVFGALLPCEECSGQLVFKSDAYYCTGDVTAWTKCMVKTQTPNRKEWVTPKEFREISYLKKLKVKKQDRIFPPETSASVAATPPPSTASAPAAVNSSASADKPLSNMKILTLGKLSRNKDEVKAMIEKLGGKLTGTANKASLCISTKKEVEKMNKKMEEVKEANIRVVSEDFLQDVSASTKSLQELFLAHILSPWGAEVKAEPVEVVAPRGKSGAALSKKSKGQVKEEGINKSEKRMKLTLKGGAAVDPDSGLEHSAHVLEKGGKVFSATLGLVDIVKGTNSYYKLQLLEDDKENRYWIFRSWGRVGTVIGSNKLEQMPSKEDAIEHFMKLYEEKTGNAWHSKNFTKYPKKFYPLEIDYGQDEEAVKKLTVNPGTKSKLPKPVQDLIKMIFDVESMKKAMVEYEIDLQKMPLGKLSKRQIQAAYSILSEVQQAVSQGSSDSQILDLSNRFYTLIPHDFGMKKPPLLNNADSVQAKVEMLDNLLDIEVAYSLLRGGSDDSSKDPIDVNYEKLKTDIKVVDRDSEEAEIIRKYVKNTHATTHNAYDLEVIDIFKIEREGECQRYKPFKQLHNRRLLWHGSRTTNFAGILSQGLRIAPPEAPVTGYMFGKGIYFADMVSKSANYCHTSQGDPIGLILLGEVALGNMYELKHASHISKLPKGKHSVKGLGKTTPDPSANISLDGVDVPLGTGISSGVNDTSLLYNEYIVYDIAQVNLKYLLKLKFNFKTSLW
Procedure: 222 xy pairs pooled from n=3 tumor sections.
Next, 10 μm cryosections were fixed in 4% paraformaldehyde for 8 minutes, followed by blocking with 3% (v/v) goat serum (Sigma-Aldrich, St. Louis, Mo.) in PBS. Antibodies were diluted in 1% (w/v) BSA and 0.3% (v/v) Triton X-100 in PBS. Anti-PARP1 primary antibody (sc-7150, Santa Cruz Biotechnology, Santa Cruz, Calif.) was incubated overnight at 4° C. (1 μg/ml), followed by three 10-minute washes with PBS and incubation with secondary AlexaFluor® 680 goat anti-rabbit antibody (A21076, Molecular Probes, Eugene, Oreg.) for 1 hour at 4° C. (2 μg/ml). After another 5-minute PBS wash, sections were mounted with Mowiol® (Sigma-Aldrich, St. Louis, Mo.) containing Hoechst 33342 DNA Stain (Sigma-Aldrich, St. Louis, Mo.). […] Incubating sections with either a nonspecific rabbit IgG or PBS instead of primary antibody confirmed binding specificity.

[11] = tested on: FaDu tumors; test: fluorescence endomicroscopy of excised FaDu tumors and control tissues; format: in vivo, mice; conditions: 90 minutes after PARPi-fl injection
Procedure: FaDu xenografts were imaged with a fluorescence endoscope that is available for both clinical and preclinical imaging (Cellvizio, Mauna Kea Technologies, Paris, France). It provides cellular to subcellular resolution and has a flexible confocal microprobe that enables versatile imaging. […] The microprobe was slowly moved over the tumor, tongue, or muscle, while a real-time video was recorded using a 488 nm excitation beam. The videos were converted to grayscale and the intensity was measured in 10 frames per video using ImageJ 1.49e Software. Topical application of PARPi-fl

[12] = tested on: orthotopic tongue tumors (FaDutdTomato); test: topical application of PARPi-fl on orthotopic tongue tumors, confocal microscopy; format: in vivo, mice; conditions: one minute application
Procedure: For topical application, the tongues were dipped into a well of a 96-well plate filled with the respective incubation solution. […] This was followed by cleaning of the tongue with an alcohol pad to remove residual unbound compound. The animals were imaged in the IVIS Spectrum before and after PARPi-fl application using the appropriate filter sets for detection of PARPi-fl and the tdTomato fluorescent protein. Spectral unmixing was used to separate the signals for tdTomato, PARPi-fl and autofluorescence. The tdTomato fluorescent protein allows in vivo localization of the tumor. For comparability, all images were scaled to the same maximum radiant efficiency. Imaging was repeated with sections of the excised tongues after cryofixation. […] Adjacent sections were H&E stained for morphological evaluation.

[13] = toxicity after local administration on the oral mucosa; format: in vivo; conditions: mice
Procedure: […]. Mice received blood draws after 24 h and 48 h post administration, and were then sacrificed to receive a full necropsy.

[14] = tissue permeability
[15] = non-irradiated, olaparib co-incubated with PARPi-fl (50-fold excess)
[16] = oral mucosa, 20 μl of 400 μM solution
[17] = topical oral mucosa, 29 nmol in 50 μL, 10 min
[18] = 48 hours after 10 Gy irradiation

bone uptake [1]: 6 % ID/g
Structure (SMILES): CC1=CC(C)=[N+]2C1=Cc1ccc(CCC(=O)N3CCN(C(=O)c4cc(Cc5n[nH]c(=O)c6ccccc56)ccc4F)CC3)n1[B-]2(F)[18F] (stereo not shown) [^18F-PARPi]

Structure (SMILES): O=C(c1cc(Cc2n[nH]c(=O)c3ccccc23)ccc1F)N1CCN(C(=O)C2CC2)CC1 [olaparib, 4-[(3-[(4-cyclopropyl-carbonyl)piperazin-4-yl]carbonyl)-4-fluorophenyl]methyl (2H)phthalazin-1-one]
IC50 ([2]; Homo sapiens, U-87 MG): 28 µM | IC50 ([3]; Homo sapiens, U-251): 8 µM | effect on PARPi-fl uptake [4, 15]: almost completely suppressed | effect on PARPi-fl uptake [5, 15]: almost completely suppressed | excreted ([6]; ^14C-labeled olaparib, within 7 days): More than 86% | terminal half-life ([6]; after a 400 mg dose): 11.9 h | tolerability ([6]; approved dose and schedule, 400 mg orally twice daily): well tolerated | apparent volume of distribution ([6]; oral administration): more than 150 L | time of peak plasma concentrations after dosing ([6]; oral administration): 1 to 3 h | inhibition of PARPi-fl tumor uptake by xenografts ([7]; coinjection with PARPi-fl): almost completely inhibited | reduction of the fluorescent signal of the tumor ([7]; olaparib injected before PARPi-fl (50-fold excess, 30 min prior)): 60%

Structure (SMILES): Cc1cc(C)n2c1C=C1C=CC(CCC(=O)N3CCN(C(=O)c4cc(Cc5n[nH]c(=O)c6ccccc56)ccc4F)CC3)=[N+]1[B-]2(F)F [PARPi-fl]
average cellular drug concentration ([8]; tumor cells in vivo after bolus dose, FIG. 9B): 1.2 µM | cells targeted within tumor tissue ([8]; uptake within tumor tissue): greater than 99.8% | concentration in targeted tumor cells ([8]; uptake within tumor tissue): 1900 ± 500 nM | metabolites ([9]; mice, 30 min post injection): less than 50% | β half-life ([9]; mice, IV injection, clearance from circulation): 1.47 h | time of peak uptake in subcutaneous tumors ([9]; post injection): 30 min | co-localization with PARP1 antibody staining, Rcoloc. [10]: 0.986 | average signal intensity ([11]; FaDu tumors): 35.4±8.6 AU | average signal intensity ([11]; thigh muscle): 15.1±2.4 AU | average signal intensity ([11]; tongue): 18.5±6.9 AU | penetration depth into tumor tissue [12]: up to 300 μm | IC50 [2]: 24 µM | IC50 [3]: 5.5 µM | changes in clinical chemical and hematologic parameters [13, 16]: no changes | local irritation [13, 16]: no local irritation | ALP [13, 17]: 90 ± 18 IU/L | ALT (SGPT) [13, 17]: 31 ± 6 IU/L | AST (SGOT) [13, 17]: 67 ± 4 IU/L | Albumin [13, 17]: 2.7 ± 0.2 g/dL | BA % [13, 17]: 0.2 ± 0.3% | BASOPHILS [13, 17]: 0.01 ± 0.02 K/μL | BUN [13, 17]: 28 ± 2 mg/dL | Calcium [13, 17]: 9.6 ± 0.2 mg/dL | Chloride [13, 17]: 114 ± 1 mEq/L | Cholesterol [13, 17]: 86 ± 8 mg/dL | Creatinine [13, 17]: 0.24 ± 0.01 mg/dL | EO % [13, 17]: 5.5 ± 1.0% | EOSINOPHIL [13, 17]: 0.64 ± 0.55 K/μL | GGT [13, 17]: 0 IU/L | Globulin [13, 17]: 2.3 ± 0.7 g/dL | Glucose [13, 17]: 229 ± 54 mg/dL | HB [13, 17]: 15.1 ± 0.9 g/dL | HCT [13, 17]: 50.4 ± 2.9% | LY % [13, 17]: 57.0 ± 10.9% | LYMPHOCYT [13, 17]: 3.34 ± 1.07 K/μL | MCH [13, 17]: 14.7 ± 0.4 pg | MCHC [13, 17]: 30.0 ± 0.1 g/dL | MCV [13, 17]: 49.3 ± 1.2 fL | MO % [13, 17]: 1.9 ± 0.8% | MONOCYTE [13, 17]: 0.10 ± 0.04 K/μL | MPV [13, 17]: 6.1 ± 0.2 fL | NE % [13, 17]: 29.5 ± 4.0% | NEUTROPHI [13, 17]: 1.69 ± 0.04 K/μL | PLT [13, 17]: 1077 ± 171 K/μL | Phosphorus [13, 17]: 6 ± 1 mg/dL | Potassium [13, 17]: 3.8 ± 0.7 mEq/L | RBC [13, 17]: 10.24 ± 0.62 M/μL | RDW [13, 17]: 23.4 ± 0.6% | Sodium [13, 17]: 151 ± 3 mEq/L | Total Bilirubin [13, 17]: 0.1 ± 0.0 mg/dL | Total Protein [13, 17]: 4.9 ± 0.8 g/dL | WBC [13, 17]: 5.78 ± 0.90 K/μL | PARPi-fl signal compared to non-irradiated cells [4, 18]: 136.0±16.6% | PARPi-fl signal compared to non-irradiated cells [5, 18]: 145.4±7.3% | tissue permeability [14]: 4.7±2.5 μm/s

Source: patent US20230065522A1 (Memorial Sloan Kettering Cancer Center, priority 2015, published 2023)
